Reference: patent publication US20230263758A1, “COMPOSITIONS OF EDTA HAVING ACTIVITY AGAINST PLANKTONIC AND BIOFILM CELLS OF CLINICALLY RELEVANT PATHOGENS” (SterileCare Inc., priority 2022, published 2023)
Where a name gives a salt, the structure may show the parent alone.

What was measured:
[1] = test system: Pseudomonas aeruginosa SK1; test: Checkerboard FBEC index, 48-h biofilm; assay type: cell-based; settings: P. aeruginosa SK1 biofilm; EDTA + chlorhexidine HCl
Protocol: (§4) In step (4), microtiter plates are incubated at 37° C. for 24 h. then (6), after incubation, the bacterial and fungal cells were dislodged from the pegs into the recovery medium described above.
(§5) Three 10-μL aliquots, for a total of 30 μL from each well of recovery medium, were spotted on MH agar plates and incubated for 24 h at 37° C. […] The FBEC determination is a modification of the FICI.

[2] = test system: E. coli SK2; test: Checkerboard, FMCI; assay type: cell-based, Escherichia coli; settings: EDTA + chlorhexidine HCl
Protocol: (§1) An assay was made using a minimum inhibitory concentration (MIC) and minimum bactericidal concentration (MBC) and minimum fungicidal concentration (MFC) determination. The MIC was determined by the micro broth dilution method in 96-well plates. Serial two-fold dilutions of tetrasodium EDTA (from 2% to 0.015%), ethanol (from 50% to 0.1%) and chlorhexidine HCl (from 100 μg/mL to 0.025 μg/mL) were prepared in MH broth with a final volume of 90 μL per well. A 10 μL containing 1×10^5 bacterial cells or 2×10^3 fungal cells were added to each well. The inoculated plates were covered with a lid, sealed with Parafilm, and incubated for 24 h at 37° C. with slight rocking on a tilting platform shaker. After incubation, the optical density at 600 nm (OD 600) of the cultures in each well was measured using an xMark™ Microplate Absorbance Spectrophotometer (Bio-Rad). […] MBCs and MFCs were determined by transferring 100 μL from each well with no apparent growth onto appropriate agar plates, followed by incubation for 24 h at 37° C.
(§2) A fourth composition and solution included tetrasodium EDTA with ethanol or chlorhexidine HCl. […] The concentrations of antimicrobials used were based on previously determined MIC values. […] Microtiter plates were incubated at 37° C. for 24 h, and the results were analyzed. […]

[3] = test system: C. albicans ON47; test: Checkerboard, FMCI; assay type: cell-based, Candida albicans; settings: EDTA + chlorhexidine HCl
Protocol: as §1, §2

[4] = test system: Pseudomonas aeruginosa SK1; test: Checkerboard titration, FICI; assay type: cell-based; settings: P. aeruginosa SK1
Protocol: (§3) A fourth composition and solution included tetrasodium EDTA with ethanol or chlorhexidine HCl. This fourth composition and solution were created using checkerboard titration methods using micro broth dilution in 96-well microtiter plates. The concentrations of antimicrobials used were based on previously determined MIC values. Briefly, 200 μL of two-fold dilutions of tetrasodium EDTA and ethanol or chlorhexidine HCl were prepared in MH or MH II broth with standardized cell suspension. […] Microtiter plates were incubated at 37° C. for 24 h, and the results were analyzed. Each test was performed in duplicate and included a growth control without adding any antimicrobials.

[5] = test system: Proteus mirabilis ON153; test: Checkerboard titration, FICI; assay type: cell-based; settings: P. mirabilis ON153
Protocol: as §3

[6] = test system: Candida albicans SK4b; test: Checkerboard titration, FICI; assay type: cell-based; settings: C. albicans SK4b
Protocol: as §3

[7] = test system: Staphylococcus aureus ON89; test: Checkerboard titration, FICI; assay type: cell-based; settings: S. aureus ON89
Protocol: as §3

[8] = test system: Stenotrophomonas maltophilia ON17; test: Checkerboard titration, FICI; assay type: cell-based; settings: S. maltophilia ON17
Protocol: as §3

[9] = test system: Staphylococcus epidermidis ON170; test: Checkerboard titration, FICI; assay type: cell-based; settings: S. epidermidis ON170
Protocol: as §3

[10] = test system: Escherichia coli ON29; test: Checkerboard titration, FICI; assay type: cell-based; settings: E. coli ON29
Protocol: as §3

[11] = test system: Serratia marcescens SK2; test: Checkerboard titration, FICI; assay type: cell-based; settings: S. marcescens SK2
Protocol: as §3

[12] = test system: Pseudomonas aeruginosa SK1; test: Checkerboard, FMCI; assay type: cell-based; settings: P. aeruginosa SK1
Protocol: as §1, §3

[13] = test system: Proteus mirabilis ON153; test: Checkerboard, FMCI; assay type: cell-based; settings: P. mirabilis ON153
Protocol: as §1, §3

[14] = test system: Candida albicans SK4b; test: Checkerboard, FMCI; assay type: cell-based; settings: C. albicans SK4b
Protocol: as §1, §3

[15] = test system: Staphylococcus aureus ON89; test: Checkerboard, FMCI; assay type: cell-based; settings: S. aureus ON89
Protocol: as §1, §3

[16] = test system: Stenotrophomonas maltophilia ON17; test: Checkerboard, FMCI; assay type: cell-based; settings: S. maltophilia ON17; EDTA + chlorhexidine HCl
Protocol: as §1, §3

[17] = test system: Staphylococcus epidermidis ON170; test: Checkerboard, FMCI; assay type: cell-based; settings: S. epidermidis ON170
Protocol: as §1, §3

[18] = test system: Escherichia coli ON29; test: Checkerboard, FMCI; assay type: cell-based; settings: E. coli ON29
Protocol: as §1, §3

[19] = test system: Serratia marcescens SK2; test: Checkerboard, FMCI; assay type: cell-based; settings: S. marcescens SK2
Protocol: as §1, §3

[20] = test system: 48-h-old biofilms of bacterial and fungal strains; test: MBEC assay, summary, 24 h exposure of 48-h-old biofilms; assay type: cell-based
Protocol: A biofilm cultivation cell composition was provided. This fifth composition was created using an MBEC Assay® biofilm inoculator, consisting of a polystyrene lid with 96 downward-protruding pegs and a corresponding base used to grow biofilms. A standardized inoculum was diluted in an appropriate biofilm growth medium to achieve a viable cell count of 1.5×10^6 CFU/mL of bacterial cells or 5×10^5 CFU/mL of fungal cells. Then, 150 μL of this inoculum was transferred into each appropriate well, and the peg lids were inserted into the microtiter plates. The plates were sealed with Parafilm and were incubated at optimum temperature for 48 h with slight rocking for bacteria and shaking at 200 rpm for fungal strains. After incubation, the peg lid was removed from the base and rinsed twice with sterile phosphate-buffered saline (PBS) for 2 min to remove loosely attached non-sessile cells. Before the antimicrobial challenge, the pegs in column 1 (n=8) were considered the biofilm growth control; these pegs were removed from the lids, placed into 200 μL of recovery medium, and analyzed for starting biofilm cell numbers as described below. […] After the antimicrobial challenge, the pegs were rinsed twice with sterile PBS for 2 min and placed into a new 96-well plate containing 200 μL of recovery medium. The recovery plates were sealed with Parafilm, and biofilm cells were dislodged from the pegs by sonication for 30 min with a Branson 3510 bath sonicator. The biofilm cells in the recovery medium were serially diluted, and a drop dilution assay was performed to enumerate the viable cells. MBEC values were determined as the minimum concentration of antimicrobials that yielded a viable cell count at or lower than the 125 CFU/mL detection limit.

[21] = test system: Escherichia coli SK2; test: Checkerboard FBEC index, 48-h biofilm; assay type: cell-based; settings: E. coli SK2 biofilm; EDTA + chlorhexidine HCl
Protocol: as §4, §5

[22] = EDTA + chlorhexidine HCl checkerboard

[H]/N=C(\N/C(=N/[H])NCCCCCCNC(=N)NC(=N)Nc1ccc(Cl)cc1)Nc1ccc(Cl)cc1 [Chlorhexidine HCl, chlorhexidine HCl, reference compound]
Biofilm eradication concentration in combination (FBEC) [1]: 3.125 µg/mL
Microbicidal concentration in combination [2]: 0.2 µg/mL
Microbicidal concentration in combination [3]: 1.6 µg/mL
Inhibitory concentration in combination [4, 22]: 0.8 µg/mL
Inhibitory concentration in combination [5, 22]: 0.8 µg/mL
Inhibitory concentration in combination [6, 22]: 0.8 µg/mL
Inhibitory concentration in combination [7, 22]: 0.1 µg/mL
Inhibitory concentration in combination [8, 22]: 0.2 µg/mL
Inhibitory concentration in combination [9, 22]: 0.05 µg/mL
Inhibitory concentration in combination [10, 22]: 0.2 µg/mL
Inhibitory concentration in combination [11, 22]: 1.5 µg/mL
Microbicidal concentration in combination ([12]; EDTA + chlorhexidine HCl): 1.6 µg/mL
Microbicidal concentration in combination ([13]; EDTA + chlorhexidine HCl): 1.6 µg/mL
Microbicidal concentration in combination ([14]; EDTA + chlorhexidine HCl): 0.8 µg/mL
Microbicidal concentration in combination ([15]; EDTA + chlorhexidine HCl): 0.2 µg/mL
Microbicidal concentration in combination [16]: 0.4 µg/mL
Microbicidal concentration in combination ([17]; EDTA + chlorhexidine HCl): 0.4 µg/mL
Microbicidal concentration in combination ([18]; EDTA + chlorhexidine HCl): 0.2 µg/mL
Microbicidal concentration in combination ([19]; EDTA + chlorhexidine HCl): 1.6 µg/mL
Concentration alone able to eradicate all established biofilms following 24 h of treatment [20]: 100 µg/mL
Biofilm eradication concentration in combination (FBEC) [21]: 3.125 µg/mL

O=C([O-])CN(CCN(CC(=O)[O-])CC(=O)[O-])CC(=O)[O-].[Na+].[Na+].[Na+].[Na+] [EDTA, tetrasodium EDTA]
Biofilm eradication concentration in combination (FBEC) [1]: 0.25 % w/v
Microbicidal concentration in combination [2]: 0.015 % w/v
Microbicidal concentration in combination [3]: 0.031 % w/v
Inhibitory concentration in combination [4, 22]: 0.5 % w/v
Inhibitory concentration in combination ([4]; EDTA + ethanol checkerboard): 0.031 % w/v
Inhibitory concentration in combination [5, 22]: 0.063 % w/v
Inhibitory concentration in combination ([5]; EDTA + ethanol checkerboard): 0.5 % w/v
Inhibitory concentration in combination [6, 22]: 0.063 % w/v
Inhibitory concentration in combination ([6]; EDTA + ethanol checkerboard): 0.25 % w/v
Inhibitory concentration in combination [7, 22]: 0.008 % w/v
Inhibitory concentration in combination ([7]; EDTA + ethanol checkerboard): 0.015 % w/v
Inhibitory concentration in combination [8, 22]: 0.015 % w/v
Inhibitory concentration in combination ([8]; EDTA + ethanol checkerboard): 0.031 % w/v
Inhibitory concentration in combination [9, 22]: 0.063 % w/v
Inhibitory concentration in combination ([9]; EDTA + ethanol checkerboard): 0.015 % w/v
Inhibitory concentration in combination [10, 22]: 0.008 % w/v
Inhibitory concentration in combination ([10]; EDTA + ethanol checkerboard): 0.25 % w/v
Inhibitory concentration in combination [11, 22]: 0.063 % w/v
Inhibitory concentration in combination ([11]; EDTA + ethanol checkerboard): 0.5 % w/v
Microbicidal concentration in combination ([12]; EDTA + chlorhexidine HCl): 0.031 % w/v
Microbicidal concentration in combination ([12]; EDTA + ethanol): 0.031 % w/v
Microbicidal concentration in combination ([13]; EDTA + ethanol): 0.063 % w/v
Microbicidal concentration in combination ([14]; EDTA + ethanol): 0.25 % w/v
Microbicidal concentration in combination ([15]; EDTA + chlorhexidine HCl): 0.008 % w/v
Microbicidal concentration in combination ([15]; EDTA + ethanol): 0.25 % w/v
Microbicidal concentration in combination [16]: 0.031 % w/v
Microbicidal concentration in combination ([17]; EDTA + chlorhexidine HCl): 0.25 % w/v
Microbicidal concentration in combination ([17]; EDTA + ethanol): 0.031 % w/v
Microbicidal concentration in combination ([18]; EDTA + chlorhexidine HCl): 0.008 % w/v
Microbicidal concentration in combination ([18]; EDTA + ethanol): 0.25 % w/v
Microbicidal concentration in combination ([19]; EDTA + ethanol): 0.25 % w/v
Concentration alone able to eradicate all established biofilms following 24 h of treatment [20]: 4%
Biofilm eradication concentration in combination (FBEC) [21]: 0.031 % w/v
